Measured values: PubChem BioAssay (NCI)
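Test compounds were applied to cells in 96-well plates for 48 hours at 5 doses. TGI: total growth inhibition.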

Key:
Assay in all cases: growth of human tumour cells (NCI), 48 h
[1] = system: SW-620 colon
[2] = system: NCI/ADR-RES ovarian
[3] = system: K-562 leukemia
[4] = system: DU-145 prostate
[5] = system: RPMI-8226 leukemia
[6] = system: EKVX NSCLC
[7] = system: ACHN renal
[8] = system: KM12 colon
[9] = system: OVCAR-5 ovarian
[10] = system: SK-MEL-28 melanoma
[11] = system: SN12C renal
[12] = system: MDA-MB-231 breast
[13] = system: HT29 colon
[14] = system: SK-MEL-2 melanoma
[15] = system: RXF 393 renal
[16] = system: HCT-15 colon
[17] = system: 786-0 renal
[18] = system: A549 NSCLC
[19] = system: HL-60(TB) leukemia

| Compound | TGI [1] | TGI [2] | TGI [3] | TGI [4] | TGI [5] | TGI [6] | TGI [7] | TGI [8] | TGI [9] | TGI [10] | TGI [11] | TGI [12] | TGI [13] | TGI [14] | TGI [15] | TGI [16] | TGI [17] | TGI [18] | TGI [19] |
| --- | --- | --- | --- | --- | --- | --- | --- | --- | --- | --- | --- | --- | --- | --- | --- | --- | --- | --- | --- |
| Cc1ccccc1N=Nc1ccc(N/N=C2/CCCNC2=O)c(C)c1 | > 100 µM | > 100 µM | > 100 µM | > 100 µM | > 100 µM | > 100 µM | > 100 µM | > 100 µM | > 100 µM | > 100 µM | > 100 µM | > 100 µM | > 100 µM | > 100 µM | > 100 µM | > 100 µM | > 100 µM | > 100 µM | > 100 µM |
| CN(/N=C/c1ccc(OCc2cccc(COc3ccc(C=O)cc3)n2)cc1)c1cnn(-c2ccc(Cl)cc2Cl)c(=O)c1Cl | > 100 µM | > 100 µM | > 100 µM | > 100 µM | > 100 µM | > 100 µM | > 100 µM | > 100 µM | > 100 µM | > 100 µM | > 100 µM | > 100 µM | > 100 µM | > 100 µM | 73.2 µM | > 100 µM | > 100 µM | > 100 µM | > 100 µM |
| COc1cc(/C=C2\N=C(c3ccccc3)N(c3nc4c(OC)ccc(OC)c4s3)C2=O)ccc1O | > 100 µM | > 100 µM | 42.4 µM | > 100 µM | 62.8 µM | > 100 µM | > 100 µM | > 100 µM | > 100 µM | > 100 µM | > 100 µM | > 100 µM | > 100 µM | > 100 µM | > 100 µM | > 100 µM | > 100 µM | > 100 µM | > 100 µM |
| O=[N+]([O-])c1cccc2nc3ccccc3c(NCCC[N+]3([O-])CCOCC3)c12 | 1.6 µM | 39.2 µM | > 100 µM | 0.868 µM | 4.69 µM | 2.01 µM | 3.81 µM | 0.538 µM | 1.5 µM | 0.984 µM | 0.993 µM | 0.948 µM | 0.761 µM | 0.375 µM | 0.366 µM | 6.42 µM | 0.729 µM | 0.871 µM | 1.02 µM |
| CC(C)(C)C1=CC(=C(c2ccc(-c3c4nc(c(-c5ccc(C(=C6C=C(C(C)(C)C)C(=O)C(C(C)(C)C)=C6)c6cc(C(C)(C)C)c(O)c(C(C)(C)C)c6)cc5)c5ccc([nH]5)c(-c5ccc(C(=C6C=C(C(C)(C)C)C(=O)C(C(C)(C)C)=C6)c6cc(C(C)(C)C)c(O)c(C(C)(C)C)c6)cc5)c5nc(c(-c6ccc(C(=C7C=C(C(C)(C)C)C(=O)C(C(C)(C)C)=C7)c7cc(C(C)(C)C)c(O)c(C(C)(C)C)c7)cc6)c6ccc3[nH]6)C=C5)C=C4)cc2)c2cc(C(C)(C)C)c(O)c(C(C)(C)C)c2)C=C(C(C)(C)C)C1=O | > 100 µM | > 100 µM | > 100 µM | > 100 µM | > 100 µM | > 100 µM | > 100 µM | > 100 µM | > 100 µM | > 100 µM | > 100 µM | > 100 µM | > 100 µM | > 100 µM | > 100 µM | > 100 µM | > 100 µM | > 100 µM | > 100 µM |
| O=C1CCCC2(c3ccccc3)Nc3ccccc3N12 (stereo not drawn) | > 100 µM | > 100 µM | > 100 µM | > 100 µM | > 100 µM | > 100 µM | > 100 µM | > 100 µM | > 100 µM | > 100 µM | > 100 µM | > 100 µM | > 100 µM | > 100 µM | > 100 µM | > 100 µM | > 100 µM | > 100 µM | > 100 µM |
| O=c1oc2cc(O)ccc2c(O)c1C(c1ccccc1F)c1c(O)c2ccc(O)cc2oc1=O | > 100 µM | > 100 µM | 69 µM | > 100 µM | 83.4 µM | > 100 µM | > 100 µM | > 100 µM | > 100 µM | > 100 µM | > 100 µM | > 100 µM | > 100 µM | > 100 µM | > 100 µM | > 100 µM | > 100 µM | > 100 µM | 43.7 µM |
